Test results from ChEMBL document CHEMBL5543121, “Drug Repurposing of ACT001 to Discover Novel Promising Sulfide Prodrugs with Improved Safety and Potent Activity for Neutrophil-Mediated Antifungal Immunotherapy” (J Med Chem, 2024).

Tests used:
[1] = Acute toxicity in C57BL/6 mouse assessed as histopathological changes in spleen at 500 mg/kg, po administered as single dose and measured after 14 days; type: organism-based; conditions: in vivo, 336 h, time 14 day
[2] = Cmax in male Sprague-Dawley rat at 2 mg/kg, iv by LC-MS/MS analysis; type: ADME, organism-based; conditions: in vivo
[3] = Clearance in male Sprague-Dawley rat at 2 mg/kg, iv by LC-MS/MS analysis; type: ADME, organism-based; conditions: in vivo
[4] = Volume of distribution at steady state in male Sprague-Dawley rat at 2 mg/kg, iv by LC-MS/MS analysis; type: ADME, organism-based; conditions: in vivo, read-out: Vdss
[5] = Acute toxicity in C57BL/6 mouse assessed as effect on creatinine level in serum at 500 mg/kg, po administered as single dose and measured every day for 14 days; type: organism-based; conditions: in vivo, 336 h, time 14 day
[6] = Subacute toxicity in C57BL/6 mouse assessed as effect on ALT level in serum at 100 mg/kg, po administered daily for 14 days and measured every day; type: organism-based; conditions: in vivo, 336 h, time 14 day
[7] = Subacute toxicity in C57BL/6 mouse assessed as change in liver weight at 100 mg/kg, po administered daily for 14 days; type: organism-based; conditions: in vivo, 336 h, time 14 day
[8] = Inhibition of fungal curdlan induced PD-L1 expression in mouse neutrophils assessed as reduction in PD-L1 positive Ly6G positive neutrophils incubated for 16 hrs by flow cytometry analysis; type: functional, cell-based; conditions: Neutrophil
[9] = Cytotoxicity against mouse neutrophils assessed as cell viability at 40 uM relative to control; type: toxicity, cell-based, Neutrophil; conditions: mouse neutrophils, read-out: Activity
[10] = Acute toxicity in C57BL/6 mouse assessed as change in lung weight at 500 mg/kg, po administered as single dose and measured after 14 days; type: organism-based; conditions: in vivo, 336 h, time 14 day
[11] = Acute toxicity in C57BL/6 mouse assessed as signs of morbidity at 500 mg/kg, po administered as single dose and measured every day for 14 days; type: organism-based; conditions: in vivo, 336 h, time 14 day

SMILES: C[C@@]1(O)CC[C@]23O[C@@]2(C)CC[C@@H]2[C@H](OC(=O)[C@H]2CS(=O)(=O)c2c(Cl)cccc2Cl)[C@@H]13
- Activity [1]: Non-Toxic
- Cmax [2]: 175 ng/mL
- clearance [3]: 453 mL/min/kg
- Vd [4]: 7.46 L/kg
- Activity [5]: Non-Toxic
- Activity [6]: Non-Toxic
- Activity [7]: Non-Toxic
- IC50 [8]: 3.76 µM
- viability at 40 µM [9]: 81.5%
- Activity [10]: Non-Toxic
- Activity [11]: Non-Toxic
